Legend:
[1] = tested on: cat fleas (Ctenocephalides felis), CO Fleas; experiment: In vivo cat flea contact assay, CO fleas; settings: Ctenocephalides felis, topical; contact with treated filter disk in vial, about 24-30 hours; mM = concentration of the DMSO solution, about 1 μL applied; read-out: LD50 (mM), CO Fleas
Procedure: (§1) This example describes an in vivo assay to screen compounds for their ability to kill cat fleas via contact.
(§2) Test compounds were dissolved in dimethylsulfoxide (DMSO) at concentrations ranging from about 0.05 mM to about 100 mM. About 1 μL of dissolved test compound was dispensed onto a 6 mm (diameter) GF/C filter disk (filter material available from Whatman Inc., Clifton, N.J.) in the bottom of a 4 mL screw-top glass vial and allowed to air dry 24-48 hours. Positive control vials were prepared in the same manner except that no test compounds were dissolved in the DMSO. About 20 newly emerged cat fleas (Ctenocephalides felis) were sedated by refrigeration at 0-4° C. and transferred to each vial. Each vial was sealed with a thin, perforated Teflon™ septum secured by an open top screw cap and held vertically in the dark. After about 24-30 hours, the healthy, moribund, and dead cat fleas in each vial were counted. The percentage of dead cat fleas in each vial was then calculated using the formula M=100(D−(FC/100))/(F−(FC/100)), in which M is the percentage of dead cat fleas due to the addition of the test compound, D is the number of dead cat fleas in the test vial, F is the total number of cat fleas in the test vial, and C is the percentage of dead cat fleas in the control vials.

[2] = tested on: houseflies (Musca domestica); experiment: In vivo housefly contact assay; settings: contact in coated glass test tube, about 24 hours; mM = concentration of the DMSO solution, about 1 μL applied
Procedure: This example describes an in vivo assay to screen compounds for their ability to kill houseflies via contact. Newly emerged houseflies (Musca domestica, available from Rincon-Vitova Insectaries, Inc., Ventura, Calif.) were sedated with carbon dioxide gas, collected in 50 mL polypropylene conical tubes containing filter paper saturated with 10% (w/w) sucrose in water, and allowed to feed at room temperature for about 2-4 hours. Test compounds were dissolved as in dimethylsulfoxide (DMSO) at concentrations ranging from about 0.05 mM to about 100 mM. About 1 μL of dissolved test compound and about 100 μL of isopropanol were dispensed into the bottom of a 9 mL screw-top glass test tube. Positive control test tubes were prepared in the same manner except that no test compounds were dissolved in the DMSO. Each test tube was rolled to coat the sides with the chemical solution, and allowed to air dry 24-48 hours. About 20 houseflies were sedated by refrigeration at 0-4° C. and transferred to each test tube. Each test tube was sealed with organdy cloth secured by an open top screw cap and laid horizontally in the dark. After about 24 hours, the healthy, moribund, and dead houseflies in each test tube were counted. The percentage of dead houseflies in each test tube was then calculated using the formula M=100(D−(FC/100))/(F−(FC/100)), in which M is the percentage of dead houseflies due to the addition of the test compound, D is the number of dead houseflies in the test tube, F is the total number of houseflies in the test tube, and C is the percentage of dead houseflies in the control test tubes.

[3] = tested on: cat fleas (Ctenocephalides felis), NC Fleas; experiment: In vivo cat flea contact assay, NC fleas; settings: contact with treated filter disk in vial, about 24-30 hours; mM = concentration of the DMSO solution, about 1 μL applied
Procedure: as §1, §2

Housefly GABA receptors = molecular target: T1, Housefly GABA receptors (Musca domestica, UniProt Q75NA5); experiment: In vitro assay of binding to housefly GABA receptors (3H-EBOB displacement, housefly neuronal membranes); settings: housefly neuronal membranes
T1 sequence (Q75NA5 30-576): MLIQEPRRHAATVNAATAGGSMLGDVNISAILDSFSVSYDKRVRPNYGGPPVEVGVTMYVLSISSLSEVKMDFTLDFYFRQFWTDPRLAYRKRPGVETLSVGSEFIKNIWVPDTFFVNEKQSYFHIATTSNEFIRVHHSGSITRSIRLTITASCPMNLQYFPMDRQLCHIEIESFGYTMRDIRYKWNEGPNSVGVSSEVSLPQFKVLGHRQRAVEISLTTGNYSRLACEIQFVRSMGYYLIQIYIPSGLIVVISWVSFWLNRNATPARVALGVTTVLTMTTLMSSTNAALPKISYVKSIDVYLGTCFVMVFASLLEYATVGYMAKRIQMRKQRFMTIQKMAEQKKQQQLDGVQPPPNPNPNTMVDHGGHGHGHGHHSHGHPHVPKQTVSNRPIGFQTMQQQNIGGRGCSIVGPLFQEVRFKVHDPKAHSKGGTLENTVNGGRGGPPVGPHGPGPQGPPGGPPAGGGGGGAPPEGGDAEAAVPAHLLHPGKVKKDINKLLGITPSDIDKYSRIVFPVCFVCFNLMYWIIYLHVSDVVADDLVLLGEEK
Procedure: Newly emerged houseflies (Musca domestica, available from Rincon-Vitova Insectaries, Inc., Ventura, Calif.) were sedated with carbon dioxide gas, collected in 50 mL polypropylene conical tubes, and immediately frozen by submersion in liquid nitrogen. Unless specified, all of the following work was performed at 0-4° C. After removal from liquid nitrogen, the tubes of frozen houseflies were shaken vigorously by hand to decapitate the houseflies. […] Contaminating wings were removed by holding a vacuum nozzle approximately 4 cm above the heads, and contaminating legs were separated from the heads by passage through a #15 mesh screen. All remaining debris were removed from the pool of heads using forceps. The purified heads were collected in 50 mL polypropylene conical tubes and stored in liquid nitrogen until processed further.
About 13 g of purified housefly heads were suspended in about 65 mL of 10% sucrose buffer (10% sucrose (w/w) in 10 mM Tris, pH 7.5). The heads were homogenized for about 1 minute, using a Tissumizer™ homogenizer equipped with a SDT-100EN probe (available from Tekmar-Dohrmann, Cincinnati, Ohio) running at 70% of its maximum speed. The extract was further homogenized by about 5 passes through a 40 mL Dounce tissue grinder. The extract was then centrifuged at about 500×g for about 5 minutes to pellet large debris. The supernatant was collected; the pellet was washed with an additional 65 mL of 10% sucrose buffer and centrifuged at 500×g for about 5 minutes. The second supernatant was collected and combined with the first supernatant, and the pool was filtered through a 100μ CellMicroSieve™ mesh to remove residual debris (available from BioDesign of New York, Carmel, N.Y.).
Neuronal membranes containing active GABA receptors were collected via sucrose density centrifugation by the following method. About 8 mL of 35% sucrose buffer (35% sucrose (w/w) in 10 mM Tris, pH 7.5), were dispensed into each of six 38 mL ultracentrifuge tubes. These layers were overlaid with about 8 mL of 20% sucrose buffer (20% sucrose (w/w) in 10 mM Tris, pH 7.5), and finally overlaid with about 20 mL of filtered extract supernatant. The tubes were centrifuged at about 120,000×g for about 100 min at 4° C. After centrifugation, the 10% sucrose layer and most of the 20% sucrose layer were removed by aspiration. The membranes at the interface of the 20% sucrose and 35% sucrose layers were collected, pooled, diluted with 10% sucrose buffer, and centrifuged at about 120,000×g for about 40 min at 4° C. After centrifugation, the supernatant was discarded, and the pellets resuspended in about 6.5 mL of assay buffer (10 mM phosphate, 300 mM NaCl, pH 7.5) using a 10 mL Potter-Elvehjem tissue grinder with a Teflon® pestle. Protein concentration was determined by the Bio-Rad Protein Assay (available from Bio-Rad Laboratories, Hercules, Calif.) using bovine serum albumin as a standard. The membranes were aliquoted and stored in liquid nitrogen for up to 2 months before use.
Housefly neuronal membranes were prepared as described above from housefly heads. Test compounds were dissolved in dimethylsulfoxide (DMSO) at concentrations ranging from about 2 nM to about 100 mM. About 1 μL of a dissolved test compound was dispensed into a well of a 96-well polystyrene plate. About 100 μL of ice cold assay buffer (10 mM phosphate, 300 mM NaCl, pH 7.5) containing 5.2 nM 4′-Ethynyl-4-n-[2,3-^3H2]propylbicycloorthobenzoate (^3H-EBOB, 38 Ci/mmol, available from NEN Life Science Products, Boston, Mass.) was added to the well, followed by about 100 μL of ice cold assay buffer containing about 0.5-1.0 mg/mL housefly neuronal membranes. Control wells were prepared the same way except that the housefly neuronal membranes were omitted from the “negative” wells, and the test compounds were omitted from the “positive” wells. […]

Compound: CC1(C)CCc2nn(-c3c(Cl)cc(C(F)(F)F)cc3Cl)cc21 [Compound 38, 2-[2,6-Dichloro-4-(trifluoromethyl)phenyl]-4,4-dimethyl-2,4,5,6-tetrahydrocyclopenta[c]pyrazole]
- LC50 [1]: 54 mM
- LD50 (mM), Flies [2]: >100 mM
- LD50 (mM), NC Fleas [3]: 15 mM
- Compounds with the most activity (housefly 3H-EBOB binding) (Housefly GABA receptors): most activity

Source: patent publication US6545033B1, “Fused 1-(2,6-dichloro-4-trifluoromethylphenyl)-pyrazoles, the synthesis thereof and the use thereof as pesticides” (3-Dimensional Pharmaceuticals, Inc., priority 1999, dated 2003)
